SMILES strings stand for the structures. Where two headings read alike, the source gives them in different places.

Drawing on patent US11839212B2, “Synergistic pesticidal compositions and methods for delivery of insecticidal active ingredients” (0903608 B.C. Ltd., priority 2018, dated 2023), this text covers MIC for 6 compounds.

Experiment in all cases: Synergistic Growth Inhibition Assay (MIC and FIC index, 96-well, resazurin)
Assay type in all cases: cell-based
In general terms: Resazurin is reduced to fluorescent resorufin, in cell work by metabolically active cells.

One assay relates to Fusarium oxysporum. Conditions: Fusarium oxysporum, Compound B alone. In outline:
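Checkerboard dilutions of pesticidal active plus C6–C10 (or C11/C12) aliphatic acid in 96-well plates; growth scored by resazurin colour change, optionally visual.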

The next assay has as its system Botrytis cinerea. Conditions: Botrytis cinerea, 48 h, Compound B alone. In outline:
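Checkerboard microdilution of pesticidal active ingredient combined with C6–C10 (or C11/C12) aliphatic acid against Botrytis cinerea, with growth read by resazurin colour change plus visual check. FIC index = sum of each agent's concentration in the inhibiting well divided by its MIC alone; 1 denotes additivity.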

The next assay has as its system Sclerotinia sclerotiorum. The note with it: Sclerotinia sclerotiorum, […], Compound B alone. The procedure, abridged: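 Checkerboard of pesticidal active ingredient combined with C6–C10 (or C11/C12) aliphatic acids in serial dilutions against Sclerotinia sclerotiorum. Growth scored by resazurin colour change plus visual inspection; FIC index is the sum of each agent's concentration divided by its MIC alone, with 1 indicating additivity.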

The test system of the next assay is Alternaria solani. Conditions: Alternaria solani, […], read-out: MIC (B). The method, then: In some embodiments, the synergistic action between the pesticidal active ingredient, and the at least one C6-C10 (or alternatively C11 or C12) saturated or unsaturated aliphatic acid components of the pesticidal compositions according to embodiments of the present disclosure was tested using a Synergistic Growth Inhibition Assay, which is derived from and related to a checkerboard assay as is known in the art for testing of combinations of antimicrobial agents. In the Synergistic Growth Inhibition Assay used in accordance with some embodiments of the present disclosure, multiple dilutions of combinations of pesticidal active ingredient and at least one C6-C10 saturated or unsaturated aliphatic acid agents are tested in individual cells for inhibitory activity against a target pest or pathogenic organism. In one such embodiment, the combinations of pesticidal active ingredient and C6-C10 (or alternatively C11 or C12) saturated or unsaturated aliphatic acid agents may preferably be tested in decreasing concentrations. In a further such embodiment, the combinations of pesticidal active ingredient and C6-C10 (or alternatively C11 or C12) saturated or unsaturated aliphatic acid agents may be tested in increasing concentrations. These multiple combinations of the pesticidal active ingredient and at least one C6-C10 (or alternatively C11 or C12) saturated or unsaturated aliphatic acid agents may be prepared in 96-well microtiter plates. In one such embodiment, the Synergistic Growth Inhibition Assay then comprises rows which each contain progressively decreasing concentrations of the pesticidal active ingredient and one or more C6-C10 (or alternatively C11 or C12) saturated or unsaturated aliphatic acid agents to test for the MIC of the agents in combination at which growth of the target pest or pathogen is inhibited. Thus, each well of the microtiter plate is a unique combination of the two agents, at which inhibitory efficacy of the combination against the target pest or pathogen can be determined.
In one embodiment according to the present disclosure, for each row of microtiter cells in the Synergistic Growth Inhibition Assay, the FIC index is calculated from the lowest concentration of the pesticidal active ingredient and one or more C6-C10 saturated or unsaturated aliphatic acid agents necessary to inhibit growth of a target pest or pathogen. The FIC of each component is derived by dividing the concentration of the agent present in that well of the microtiter plate by the minimal inhibitory concentration (MIC) needed of that agent alone to inhibit growth of the target pest or pathogen. The FIC index is then the sum of these values for both agents in that well of the microtiter plate. […] Fractional inhibitory concentration indices may then used as measure of synergy. […] When the FIC index is equal to 1, the combination is additive.
Then, serial dilutions of these initial compositions in successive wells in the row of the microtiter plate were used to assay the pesticidal composition under the same conditions to determine the concentration of the composition combining the two agents corresponding to the microtiter well in which growth inhibition of the target pest or organism ceases.
A culture of the representative fungal pathogen, namely Fusarium oxysporum, Botrytis cinerea, or Sclerotinia sclerotiorum, for example, is grown to exponential phase in potato dextrose broth (PDB).

The mark [1] stands for this setting: 24 h, Table 3, 24 hour incubation, read-out: MIC(B).
Setting [2] is: 24 h, Table 4, 24 hour incubation, read-out: MIC (B).
[3] abbreviates: 48 h, Table 27, 48 hours incubation, read-out: MIC (B).
The mark [4] stands for this setting: 48 h, Table 28, 48 hours incubation, read-out: MIC (B).
Where [5] appears, read: 48 h, Table 30, 48 hours incubation, read-out: MIC (B).
[6] abbreviates: 48 h, Table 32, 48 hours incubation, read-out: MIC (B).
Setting [7] is: Table 43, 48 hours incubation, read-out: MIC (B).
[8] abbreviates: Table 44, 48 hours incubation, read-out: MIC (B).
Where [9] appears, read: Table 45, 48 hours incubation, read-out: MIC (B).
[10] abbreviates: Table 49, 48 hours incubation, read-out: MIC (B).
Setting [11] is: Table 50, 48 hours incubation, read-out: MIC (B).
The mark [12] stands for this setting: Table 56, 48 hours incubation, read-out: MIC (B).
The mark [13] stands for this setting: Table 58, 48 hours incubation, read-out: MIC (B).
[14] abbreviates: 7 days incubation, read-out: MIC (B).
[15] abbreviates: Table 33, 7 days incubation, read-out: MIC (B).
Setting [16] is: Table 35, 7 days incubation, read-out: MIC (B).
The mark [17] stands for this setting: Table 37, 7 days incubation, read-out: MIC (B).
Setting [18] is: Table 38, 7 days incubation, read-out: MIC (B).
Setting [19] is: Table 39, 7 days incubation, read-out: MIC (B).
Setting [20] is: Table 40, 7 days incubation, read-out: MIC (B).
Setting [21] is: Table 41, 7 days incubation, read-out: MIC (B).
The mark [22] stands for this setting: Table 60, Compound B alone, 7 days incubation.
The mark [23] stands for this setting: Table 34, 7 days incubation, read-out: MIC (B).
The mark [24] stands for this setting: 24 h, Table 1, 24 hour incubation, read-out: MIC(B).
The mark [25] stands for this setting: 24 h, Table 2, 24 hour incubation, read-out: MIC (B).

On to `C=CCCCCCCCC(=O)O` [9-Decenoic acid, 9-decenoic acid], for which the MIC (as a rule, the lowest concentration found to suppress growth) in the assay with Fusarium oxysporum (setting [1]) was found to be 71.7 µg/mL; in the assay with Fusarium oxysporum (setting [2]), 71.7 µg/mL; with Fusarium oxysporum (setting [3]), 312 µg/mL; in the assay on Fusarium oxysporum (setting [4]), 312 µg/mL; in the assay on Fusarium oxysporum (setting [5]) it was 156 µg/mL; in the assay on Fusarium oxysporum (setting [6]), 78.1 µg/mL. Besides, the MIC worked out at 156 µg/mL with Botrytis cinerea (setting [7]); 78.1 µg/mL in the assay with Botrytis cinerea (setting [8]); 78.1 µg/mL with Botrytis cinerea (setting [9]); 39.1 µg/mL in the assay with Botrytis cinerea (Table 46, 48 hours incubation, read-out: MIC (B)); 78.1 µg/mL with Botrytis cinerea (Table 47, 48 hours incubation, read-out: MIC (B)); 78.1 µg/mL with Botrytis cinerea (Table 48, 48 hours incubation, read-out: MIC (B)). In addition, the MIC in the assay with Botrytis cinerea (setting [10]) is 156 µg/mL; with Botrytis cinerea (setting [11]), 39.1 µg/mL; with Botrytis cinerea (Table 54, 48 hours incubation, read-out: MIC (B)), 78.1 µg/mL; with Botrytis cinerea (setting [12]), 78.1 µg/mL; in the assay with Botrytis cinerea (setting [13]) it was 156 µg/mL; in the assay with Sclerotinia sclerotiorum (setting [14]), 78.1 µg/mL. Besides, the MIC was 39.1 µg/mL in the assay on Sclerotinia sclerotiorum (setting [15]); 39.1 µg/mL in the assay with Sclerotinia sclerotiorum (setting [16]); 39.1 µg/mL in the assay on Sclerotinia sclerotiorum (Table 36, 7 days incubation, read-out: MIC (B)); 156 µg/mL in the assay with Sclerotinia sclerotiorum (setting [17]); 78.1 µg/mL in the assay on Sclerotinia sclerotiorum (setting [18]); 39.1 µg/mL in the assay on Sclerotinia sclerotiorum (setting [19]). The MIC in the assay with Sclerotinia sclerotiorum (setting [20]) is 78.1 µg/mL; in the assay on Sclerotinia sclerotiorum (setting [21]), 78.1 µg/mL; in the assay with Alternaria solani (setting [22]), 39.1 µg/mL.

As for `CCCCCCC/C=C/C(=O)O` [Trans-2-decenoic acid, trans-2-decenoic acid], the MIC in the assay with Fusarium oxysporum (setting [1]) worked out at 36.2 µg/mL; in the assay on Fusarium oxysporum (setting [2]) it was 36.2 µg/mL; in the assay with Fusarium oxysporum (setting [5]) it was 78.1 µg/mL; in the assay with Fusarium oxysporum (setting [6]), 156 µg/mL; in the assay with Botrytis cinerea (setting [7]) it was 19.5 µg/mL; with Botrytis cinerea (setting [8]), 78.1 µg/mL. In addition, the MIC in the assay with Botrytis cinerea (setting [9]) stood at 39.1 µg/mL; with Botrytis cinerea (setting [10]), 78.1 µg/mL; in the assay on Botrytis cinerea (setting [11]) it was 39.1 µg/mL; in the assay on Botrytis cinerea (Table 51, 48 hours incubation, read-out: MIC (B)) it was 19.5 µg/mL; with Botrytis cinerea (setting [12]) it was 78.1 µg/mL; in the assay with Botrytis cinerea (setting [13]), 156 µg/mL. The MIC with Sclerotinia sclerotiorum (setting [14]) was determined as 19.5 µg/mL; in the assay with Sclerotinia sclerotiorum (setting [15]), 19.5 µg/mL; in the assay with Sclerotinia sclerotiorum (setting [23]) it was 19.5 µg/mL; in the assay on Sclerotinia sclerotiorum (setting [16]), 9.77 µg/mL; with Sclerotinia sclerotiorum (setting [17]), 39.1 µg/mL; with Sclerotinia sclerotiorum (setting [18]) it was 19.5 µg/mL. Further, the minimum inhibitory concentration (MIC) in the assay on Sclerotinia sclerotiorum (setting [19]) was 19.5 µg/mL; in the assay with Sclerotinia sclerotiorum (setting [20]), 19.5 µg/mL; with Sclerotinia sclerotiorum (Table 42, incubation 7 days, read-out: MIC (B)), 19.5 µg/mL; in the assay on Alternaria solani (Compound B alone, 7 days incubation), 39.1 µg/mL; with Alternaria solani (setting [22]) it was 78.1 µg/mL.

On to `CC/C=C/CC(=O)O` [Trans-3-hexenoic acid, trans-3-hexenoic acid], for which the MIC is 312 µg/mL in the assay with Fusarium oxysporum (setting [24]); 312 µg/mL in the assay with Fusarium oxysporum (setting [25]); 312 µg/mL in the assay with Fusarium oxysporum (setting [3]); 312 µg/mL in the assay with Fusarium oxysporum (setting [4]); 312 µg/mL in the assay on Fusarium oxysporum (setting [5]); 156 µg/mL in the assay on Fusarium oxysporum (48 h, Table 31, 48 hours incubation, read-out: MIC (B)). For the same compound, the MIC in the assay with Botrytis cinerea (setting [7]) was 156 µg/mL; in the assay on Botrytis cinerea (setting [8]) it was 156 µg/mL; in the assay on Botrytis cinerea (setting [9]), 312 µg/mL; with Sclerotinia sclerotiorum (setting [14]) it was 312 µg/mL; in the assay on Sclerotinia sclerotiorum (setting [15]), 156 µg/mL; in the assay with Sclerotinia sclerotiorum (setting [23]) it was 156 µg/mL. Moreover, the MIC stood at 156 µg/mL in the assay on Sclerotinia sclerotiorum (setting [16]), 156 µg/mL in the assay on Sclerotinia sclerotiorum (setting [21]) and 312 µg/mL with Alternaria solani (setting [22]).

In the case of `CCCCCCCCC(=O)O` [Nonanoic acid, nonanoic acid], the MIC in the assay on Fusarium oxysporum (48 h, Table 12, incubation 48 hours, read-out: MIC (B)) turned out to be 312 µg/mL; in the assay with Botrytis cinerea (Table 24, 48 hours incubation, read-out: MIC (B)), 156 µg/mL; in the assay on Sclerotinia sclerotiorum (setting [14]), 39.1 µg/mL; with Sclerotinia sclerotiorum (Table 16, incubation 7 days, read-out: MIC (B)), 19.5 µg/mL; in the assay on Sclerotinia sclerotiorum (Table 17, incubation 7 days, read-out: MIC (B)), 78.1 µg/mL; in the assay on Sclerotinia sclerotiorum (Table 19, incubation 7 days, read-out: MIC (B)) it was 78.1 µg/mL. Besides, the MIC was determined as 39.1 µg/mL in the assay with Sclerotinia sclerotiorum (Table 20A, incubation 7 days, read-out: MIC (B)) and 156 µg/mL in the assay with Alternaria solani (setting [22]).

As to `CCCCCC(=O)O` [Hexanoic acid, hexanoic acid], the MIC with Fusarium oxysporum (24 h, read-out: MIC(B), Table 7, 24 hour incubation) stood at 145 µg/mL; in the assay on Fusarium oxysporum (read-out: MIC (B), Table 8), 290 µg/mL; with Botrytis cinerea (read-out: MIC (B), Table 21, incubation 48 hours), 78.1 µg/mL; in the assay on Botrytis cinerea (read-out: MIC (B), Table 22, incubation 48 hours), 78.1 µg/mL; in the assay with Botrytis cinerea (read-out: MIC (B), Table 25, 48 hours incubation) it was 78.1 µg/mL; in the assay with Sclerotinia sclerotiorum (read-out: MIC (B), Table 16, incubation 7 days), 39.1 µg/mL. The MIC in the assay on Sclerotinia sclerotiorum (read-out: MIC (B), Table 17, incubation 7 days) came out at 39.1 µg/mL; with Sclerotinia sclerotiorum (read-out: MIC (B), Table 19, incubation 7 days) it was 78.1 µg/mL; in the assay with Alternaria solani, 156 µg/mL.

Turning to `C/C=C/C=C/C(=O)O` [(2E,4E)-2,4-hexadienoic acid], the MIC in the assay on Fusarium oxysporum (setting [24]) stood at 125 µg/mL; with Fusarium oxysporum (setting [25]) it was 125 µg/mL; with Fusarium oxysporum (setting [3]) it was 25 µg/mL; in the assay on Botrytis cinerea (setting [7]) it was 62.5 µg/mL; in the assay with Botrytis cinerea (setting [8]) it was 62.5 µg/mL; in the assay with Botrytis cinerea (setting [12]) it was 125 µg/mL. For the same compound, the values for the MIC in the assay with Botrytis cinerea (setting [13]), with Sclerotinia sclerotiorum (setting [15]) and in the assay with Alternaria solani (setting [22]) were 250 µg/mL, 125 µg/mL and 125 µg/mL, respectively.
